Here are results for nine molecules from patent publication US6130342A, “CYP2D fluorescent assay reagents” (Gentest Corporation, priority 1999, dated 2000).

For orientation: IC50 means the concentration needed to halve the response being measured. As a reminder, the kcat is the maximal rate divided by the concentration of active sites. In general, Km refers to the substrate concentration at which the rate is half of its maximum.

Series [1] concerns panel of human P450 enzymes. Description: Selectivity in a panel of cDNA-expressed P450 enzymes (dealkylation). Type of series: biochemical. Particulars: FIGS. 1, 2, and 3. Here is the method:
The selectivity of various P450 isoforms for dealkylation of compounds Ia, Ib and Ic was examined using a panel of commercially available human cDNA-expressed enzymes. A substrate that is selective for a single P450 isoform (substrate is catalytically turned over by a single P450 isoform) is a desirable trait in that its activity may be examined within a heterogeneous mixture of enzymes, for example, in human liver microsomes.
Example Compounds Ia, Ib and Ic. Compounds Ia, Ib and Ic were incubated as described in the examples (1) above except that the enzyme source consisted of one each of several different commercially available, baculovirus/insect cell expressed human cytochrome P450 enzymes (SUPERSOME®, GENTEST Corporation).

Series [2] has as its target T1, CYP2D6 (Homo sapiens, UniProt P10635). The experiment in a line: Enzyme kinetics with cDNA-expressed CYP2D6 (fluorometric). It counts as biochemical. Also noted: purchased GENTEST Corporation P217; host or cells: baculovirus/insect cell (SUPERSOMES). Here is the method: (§1) The evaluation of compounds of Formula I were initially performed by measuring the kinetics of turnover using cDNA-expressed CYP2D6. Vmax and Km values are important for the optimization of the assay conditions and for setting the parameters for inhibition experiments. […] However, compounds Ib and Ic, contain the 4-trifluoromethyl group (R4) which shifts the fluorescent properties of these molecules to longer wavelengths.
(§2) Example Compound Ia. […] The substrate, compound Ia, was prepared in pH 7.4 potassium phosphate buffer (0.1 M). […] The final cofactor concentrations were 0.0082 mM NADP, 0.41 mM glucose-6-phosphate and 0.2 U/ml glucose-6-phosphate dehydrogenase. Final incubation volume was 0.2 ml. […] The activity was quantified by comparing to a standard curve of 3-[2-(N,N-diethylamino)ethyl]-7-hydroxy-4-methylcoumarin hydrochloride. Apparent Km and Vmax values were calculated by non-linear kinetics using SigmaPlot 4.0 software.
(§3) Example Compounds Ib and Ic. The following procedure applies to compounds Ib and Ic as substrates. […] The substrates, Ib and Ic, were prepared in acetonitrile. […] Final incubation volume was 0.2 ml. […] The enzyme activity was quantified by comparing to a standard curve of 3-[2-(N, N-diethyl-N-methylammonium)ethyl]-7-hydroxy-4-trifluoromethylcoumarin iodide (compound IIb) when assaying for metabolism of Ib or 3-[2-(diethylamino)ethyl]-7-hydroxy-4-trifluoromethyl coumarin (compound IIc) when assaying for metabolism of Ic. Apparent Km and Vmax values were calculated by non-linear kinetics using SigmaPlot 4.0 software.

The target of series [3] is T1, CYP2D6. Description: CYP2D6 specificity in human liver microsomes with and without quinidine. Type of series: biochemical. On the set-up: purchased GENTEST Corporation P217; host or cells: baculovirus/insect cell (SUPERSOMES). To be noted: for pmole Product with quinidine: 5 uM quinidine; for pmole Product with quinidine / pmole Product: 5.0 uM compound I, 1.0 mg/ml HLM; for pmole Product: without quinidine. Here is the method:
Human liver microsomes (HLM) contain several drug (xenobiotic) metabolizing cytochromes P450. When HLM are used as an enzyme source, it is critical that the probe biotransformation be specifically catalyzed by the enzyme of interest.
After incubation, 100 ul of the reaction was added to 1.9 ml of 100 mM Tris (pH 9) and the fluorescence was determined with excitation at 390 nm and emission at 460 nm in a spectrofluorometer. The activity was quantitated by comparing to a standard curve of 3-[2-(diethylamino)ethyl]-7-hydroxy-4-methylcoumarin hydrochloride (Table III): […]
(Liver microsomes are a subcellular fraction often used to study metabolism.)

In series [4] the target is T1, CYP2D6. Description: biochemical.
For series [5], the system named is CYP2D6. To be noted: Kupfer et al. 1984; cited from earlier work.
Series [6] relates to other human cytochromes P450. To be noted: Crespi et al. 1997; cited from earlier work.
Series [7] has as its system CYP2D6. Particulars: Crespi et al. 1997; cited from earlier work.
Substrate in series [8]: CCN(CC)CCc1c(C(F)(F)F)c2ccc(OC)cc2oc1=O
The experiment in a line: Enzyme kinetics with cDNA-expressed CYP2D6 (fluorometric). Type of series: biochemical. Particulars: cDNA-expressed human CYP2D6, 37° C., pH 7.4. Here is the method:
as §1, §2, §3

Substrate in series [9]: CC[N+](C)(CC)CCc1c(C(F)(F)F)c2ccc(OC)cc2oc1=O
The series is described as above. Type of series: biochemical. To be noted: cDNA-expressed human CYP2D6, 37° C., pH 7.4. Here is the method: as §1, §2, §3

Substrate in series [10]: CC[N+](C)(CC)CCc1c(C)c2ccc(OC)cc2oc1=O
The description is as above. Type of series: biochemical. To be noted: cDNA-expressed human CYP2D6, 37° C., pH 7.4. The protocol: as §1, §2, §3

Substrate in series [11]: CCOc1ccc2cc(C#N)c(=O)oc2c1
The series is described as above. It counts as biochemical. Particulars: cDNA-expressed human CYP2D6, 37° C., pH 7.4.

Values joined by “and” are separate entries in the source; they are usually repeats but may differ in a detail not shown here. Equal entries are not always repeated.

As to `CC[N+](C)(CC)CCc1c(C)c2ccc(OC)cc2oc1=O` [Compound Ia, 3-[2-(N,N-diethyl-N-methylammonium)ethyl]-7-methoxy-4-methylcoumarin], the “catalytic selectivity for dealkylation” value in series [1] is “selective for CYP2D6”. Besides, at CYP2D6 [2], the catalytic turnover entry was “highest catalytic turnover”. Also, the “pmole Product with quinidine” value was 0 pmol on CYP2D6 [3] (0 min), 0 pmol on CYP2D6 [3] (5 min), 0 pmol at CYP2D6 [3] (10 min) and -0.7 pmol at CYP2D6 [3] (15 min). Also, the “pmole Product” value at CYP2D6 [3] (0 min) is 0 pmol; on CYP2D6 [3] (5 min), 3.3 pmol; on CYP2D6 [3] (10 min), 6.3 pmol; on CYP2D6 [3] (15 min), 8.5 pmol. For the same molecule, the “measurable metabolism / CYP2D6 specificity” value at CYP2D6 [3] (human liver microsomes, quinidine inhibition) is on record as “exclusively due to CYP2D6”.
Turning to `NCCC(Oc1ccc(C(F)(F)F)cc1)c1ccccc1` (centres unmarked) [Norfluoxetine], the IC50 on CYP2D6 [4] is 8.4 µM and 1.1 µM.
As for `COc1ccc2c(c1)[C@]13CCCC[C@@H]1[C@H](C2)N(C)CC3` [Dextromethorphan], in the series on CYP2D6 [5], the “metabolism by CYP2D6” value is given as “O-demethylated by CYP2D6”.
For `CCc1cccc2cc(C(O)CNC(C)(C)C)oc12` (centres unmarked) [Bufuralol], the IC50 against CYP2D6 [4] is 27 µM and 17 µM and 23.3 µM and 104 µM.
With `CCOc1ccc2cc(C#N)c(=O)oc2c1` [CEC, 3-cyano-7-ethoxycoumarin], in series [6], the “metabolism by other human cytochromes P450” value is “significantly metabolized by other human cytochromes P450” and the specificity of substrate result is “poor specificity”. The enzymatic turnover entry with CYP2D6 [7] is “low enzymatic turnover”.
In the case of `N=C(N)N1CCc2ccccc2C1` [Debrisoquine], the IC50 against CYP2D6 [4] is 29 µM and 20 µM and 10.6 µM and 105 µM.
Turning to `CC[N+](C)(CC)CCc1c(C(F)(F)F)c2ccc(OC)cc2oc1=O` [Compound Ib, 3-[2-(N,N-diethyl-N-methylammonium)ethyl]-7-methoxy-4-trifluoromethylcoumarin iodide], the “catalytic selectivity for dealkylation” value in [1] is reported as “also substrates for other human P450 enzymes”. Also, the catalytic turnover entry at CYP2D6 [2] was “lower catalytic turnover compared to compound Ia”.
As to `CCN(CC)CCc1c(C(F)(F)F)c2ccc(OC)cc2oc1=O` [Compound Ic, 3-[2-(diethylamino)ethyl]-7-methoxy-4-trifluoromethylcoumarin], the “catalytic selectivity for dealkylation” value in series [1] is given as “also substrates for other human P450 enzymes”. At CYP2D6 [2], the catalytic turnover entry is reported as “lower catalytic turnover compared to compound Ia”.

B1: CYP2D6 (Homo sapiens) (protein)
chain: MGLEALVPLAVIVAIFLLLVDLMHRRQRWAARYPPGPLPLPGLGNLLHVDFQNTPYCFDQLRRRFGDVFSLQLAWTPVVVLNGLAAVREALVTHGEDTADRPPVPITQILGFGPRSQGVFLARYGPAWREQRRFSVSTLRNLGLGKKSLEQWVTEEAACLCAAFANHSGRPFRPNGLLDKAVSNVIASLTCGRRFEYDDPRFLRLLDLAQEGLKEESGFLREVLNAVPVLLHIPALAGKVLRFQKAFLTQLDELLTEHRMTWDPAQPPRDLTEAFLAEMEKAKGNPESSFNDENLRIVVADLFSAGMVTTSTTLAWGLLLMILHPDVQRRVQQEIDDVIGQVRRPEMGDQAHMPYTTAVIHEVQRFGDIVPLGVTHMTSRDIEVQGFRIPKGTTLITNLSSVLKDEAVWEKPFRFHPEHFLDAQGHFVKPEAFLPFSAGRRACLGEPLARMELFLFFTSLLQHFSFSVPTGQPRPSHHGVFAFLVSPSPYELCAVPR
notes: purchased GENTEST Corporation P217; host or cells: baculovirus/insect cell (SUPERSOMES)
With B1, the kcat in series [8] was found to be 0.0033 s⁻¹; in series [9], 0.00267 s⁻¹; in series [10], 0.0167 s⁻¹; in series [11], 0.000283 s⁻¹. In addition, the Km is 3.3 µM in series [8] (other: apparent Km), 0.8 µM in series [9] (other: apparent Km) and 67 µM in series [11] (other: apparent Km).
